Type in all cases: functional
Assay [1] deals with Mycobacterium tuberculosis. As to the kind of experiment: Antibacterial activity against Mycobacterium tuberculosis TN565 (W).
The subject of assay [2] is Mycobacterium tuberculosis. As to the kind of experiment: Antibacterial activity against Mycobacterium tuberculosis TN913.
The test system of assay [3] is Mycobacterium tuberculosis. As to the kind of experiment: Antibacterial activity against Mycobacterium tuberculosis TN1618 (P).
The test system of assay [4] is Mycobacterium tuberculosis. As to the kind of experiment: Antibacterial activity against Mycobacterium tuberculosis H37Rv.
Assay [5] relates to Escherichia coli. As to the kind of experiment: Antibacterial activity against Escherichia coli wild-type.
For the next assay, the system named is Pseudomonas aeruginosa. As to the kind of experiment: Antibacterial activity against Pseudomonas aeruginosa wild-type.
Another assay has as its system Pasteurella multocida. As to the kind of experiment: Antibacterial activity against Pasteurella multocida wild-type.
Assay [6] deals with Klebsiella pneumoniae. As to the kind of experiment: Antibacterial activity against Klebsiella pneumoniae resistant to (AMP) ampicillin; (GEN) gentamicin; NAL (nalidixic acid); (TET) tetracycline.
In a further assay the test system is Citrobacter freundii. As to the kind of experiment: Antibacterial activity against Citrobacter freundii resistant to (GEN) gentamicin; (ERY) erythromycin;.
Assay [7] concerns Klebsiella pneumoniae. As to the kind of experiment: Antibacterial activity against Klebsiella pneumoniae.
The subject of the next assay is Acinetobacter baumannii. As to the kind of experiment: Antibacterial activity against Acinetobacter baumannii resistant to (ERY) erythromycin;.
Another assay concerns Citrobacter koseri. As to the kind of experiment: Antibacterial activity against Citrobacter diversus.
Another assay relates to Enterobacter cloacae. As to the kind of experiment: Antibacterial activity against Enterobacter cloacae resistant to (ERY) erythromycin;.
Assay [8] relates to Escherichia coli. As to the kind of experiment: Antibacterial activity against Escherichia coli resistant to (GEN) gentamicin; (RIF) rifampicin; (SM) streptomycin; (SP) spectinomycin; (SU) sulfonamides; (TET) tetracycline; (Hg)mercury.
In the next assay the test system is Salmonella sp. As to the kind of experiment: Antibacterial activity against Salmonella species. resistant to (AMP) ampicillin; (ERY) erythromycin.
The test system of assay [9] is Escherichia coli. As to the kind of experiment: Antibacterial activity against Escherichia coli resistant to (AMP) ampicillin;) KAN) kanamycin; (NM) neomycin; (RIF) rifampicin; (TET) tetracycline; (Hg)mercury.
The mark [10] stands for this setting: Escherichia coli, read-out: MIC.

Converted amounts (≈) assume the structure as drawn.

Regarding `CC(C)C[C@H](NC(=O)N[C@@H](Cc1c[nH]c2ccccc12)C(=O)O)C(=O)N[C@H](C(=O)NC[C@H]1C[C@@H](O)[C@H](n2ccc(=O)[nH]c2=O)O1)[C@H](C)N(C)C(=O)CN`, the MIC in assay [1], in [2], in assay [3] and in assay [4] was > 30 µg/mL in each case.
On to `C[C@H](N)C(=O)N(C)[C@@H](C)[C@H](NC(=O)[C@H](Cc1ccccc1)NC(=O)N[C@@H](Cc1ccc2ccccc2c1)C(=O)O)C(=O)NC[C@H]1C[C@@H](O)[C@H](n2ccc(=O)[nH]c2=O)O1`, for which the MIC worked out at 30 µg/mL (≈ 37.5 µM) in [1], 30 µg/mL (≈ 37.5 µM) in assay [2], 10 µg/mL (≈ 12.5 µM) in [3] and 30 µg/mL (≈ 37.5 µM) in assay [4].
With `C[C@@H]([C@H](NC(=O)[C@H](Cc1ccccc1)NC(=O)N[C@@H](Cc1c[nH]c2ccccc12)C(=O)O)C(=O)NC[C@H]1C[C@@H](O)[C@H](n2ccc(=O)[nH]c2=O)O1)N(C)C(=O)CN`, the MIC in the assay with Escherichia coli [5] (setting [10]) turned out to be 256 µg/mL (≈ 330 µM); in the assay on Pseudomonas aeruginosa it was 8 µg/mL (≈ 10.3 µM); with Pasteurella multocida it was 64 µg/mL (≈ 82.5 µM).
Regarding `CC(C)C[C@H](N)C(=O)N(C)[C@@H](C)[C@H](NC(=O)[C@H](Cc1ccccc1)NC(=O)N[C@@H](Cc1c[nH]c2ccccc12)C(=O)O)C(=O)NC[C@H]1C[C@@H](O)[C@H](n2ccc(=O)[nH]c2=O)O1`, the MIC in assay [1] stood at 30 µg/mL (≈ 36.1 µM); in assay [2] it was 30 µg/mL (≈ 36.1 µM); in assay [3], 10 µg/mL (≈ 12 µM); in [4], 30 µg/mL (≈ 36.1 µM).
As to `C[C@H](N)C(=O)N(C)[C@@H](C)[C@H](NC(=O)[C@H](Cc1ccc(C(F)(F)F)cc1)NC(=O)N[C@@H](Cc1c[nH]c2ccccc12)C(=O)O)C(=O)NC[C@H]1C[C@@H](O)[C@H](n2ccc(=O)[nH]c2=O)O1`, the MIC came to 4 µg/mL (≈ 4.66 µM) in assay [1], 4 µg/mL (≈ 4.66 µM) in [2], 8 µg/mL (≈ 9.33 µM) in [3] and 8 µg/mL (≈ 9.33 µM) in assay [4].
`C[C@H](N)C(=O)N(C)[C@@H](C)[C@H](NC(=O)[C@H](Cc1ccccc1)NC(=O)N[C@@H](Cc1c[nH]c2ccccc12)C(=O)O)C(=O)NC[C@H]1CC(O)[C@H](n2ccc(=O)[nH]c2=O)O1` (some centres undefined): the MIC stood at 4 µg/mL (≈ 5.06 µM) in assay [1], 8 µg/mL (≈ 10.1 µM) in assay [2], 8 µg/mL (≈ 10.1 µM) in assay [3] and 8 µg/mL (≈ 10.1 µM) in [4].
Turning to `C[C@H](NC(=O)N[C@@H](Cc1c[nH]c2ccccc12)C(=O)O)C(=O)N[C@H](C(=O)NC[C@H]1C[C@@H](O)[C@H](n2ccc(=O)[nH]c2=O)O1)[C@H](C)N(C)C(=O)[C@@H](N)Cc1ccc(O)cc1` [PACIDAMYCIN], the MIC in the assay with Escherichia coli [5] (setting [10]) was 256 µg/mL (≈ 318 µM); in the assay with Pseudomonas aeruginosa, 16 µg/mL (≈ 19.9 µM); with Pasteurella multocida, 128 µg/mL (≈ 159 µM); in assay [1] it was > 30 µg/mL; in assay [2] it was > 30 µg/mL; in assay [3], > 30 µg/mL. Further, the MIC in assay [4] was > 30 µg/mL.
Take `C[C@H](N)C(=O)N(C)[C@@H](C)[C@H](NC(=O)[C@H](Cc1ccc(-c2ccccc2)cc1)NC(=O)N[C@@H](Cc1c[nH]c2ccccc12)C(=O)O)C(=O)NC[C@H]1C[C@@H](O)[C@H](n2ccc(=O)[nH]c2=O)O1`: the MIC is 4 µg/mL (≈ 4.62 µM) in assay [1], 4 µg/mL (≈ 4.62 µM) in assay [2], 10 µg/mL (≈ 11.5 µM) in [3] and 8 µg/mL (≈ 9.24 µM) in assay [4].
As to `CSCC[C@H](NC(=O)N[C@@H](Cc1ccc(O)cc1)C(=O)O)C(=O)N[C@H](C(=O)NC[C@H]1C[C@@H](O)[C@H](n2ccc(=O)[nH]c2=O)O1)[C@H](C)N(C)C(=O)[C@H](C)N`, the MIC in [1], in assay [2], in assay [3] and in assay [4] was > 30 µg/mL in each case.
On to `C[C@H](N)C(=O)N(C)[C@@H](C)[C@H](NC(=O)[C@H](Cc1ccc(F)cc1)NC(=O)N[C@@H](Cc1c[nH]c2ccccc12)C(=O)O)C(=O)NC[C@H]1C[C@@H](O)[C@H](n2ccc(=O)[nH]c2=O)O1`, for which the MIC in assay [1] is 4 µg/mL (≈ 4.95 µM); in assay [2] it was 8 µg/mL (≈ 9.9 µM); in assay [3], 8 µg/mL (≈ 9.9 µM); in assay [4], 8 µg/mL (≈ 9.9 µM).
On to `C[C@H](N)C(=O)N(C)[C@@H](C)[C@H](NC(=O)[C@H](Cc1ccc(F)cc1)NC(=O)N[C@@H](Cc1ccc(O)cc1)C(=O)O)C(=O)NC[C@H]1C[C@@H](O)[C@H](n2ccc(=O)[nH]c2=O)O1`, for which the MIC was ≥ 64 µg/mL in the assay with Klebsiella pneumoniae [6]; 4 µg/mL (≈ 5.1 µM) with Escherichia coli [5]; 4 µg/mL (≈ 5.1 µM) with Escherichia coli [5] (setting [10]); 64 µg/mL (≈ 81.5 µM) against Pseudomonas aeruginosa; 1 µg/mL (≈ 1.27 µM) in the assay with Citrobacter freundii; 32 µg/mL (≈ 40.8 µM) with Klebsiella pneumoniae [7]. Besides, the MIC against Pasteurella multocida was 512 µg/mL (≈ 652 µM); in assay [1], 8 µg/mL (≈ 10.2 µM); in assay [2] it was 8 µg/mL (≈ 10.2 µM); in the assay on Acinetobacter baumannii, ≥ 64 µg/mL; in [3], 10 µg/mL (≈ 12.7 µM); against Citrobacter koseri, 16 µg/mL (≈ 20.4 µM). The MIC against Enterobacter cloacae was ≥ 64 µg/mL; against Escherichia coli [8], 8 µg/mL (≈ 10.2 µM); against Salmonella sp., 8 µg/mL (≈ 10.2 µM); in [4], 10 µg/mL (≈ 12.7 µM); against Escherichia coli [9] it was 8 µg/mL (≈ 10.2 µM).

The values are drawn from ChEMBL document CHEMBL1136243, “Synthetic dihydropacidamycin antibiotics: a modified spectrum of activity for the pacidamycin class” (2003).
